{"source": "patent US10159676B2", "about": "“Induction of tumor hypoxia for cancer therapy” (Virginia Commonwealth University, priority 2008, dated 2018)", "type_in_all_cases": "in vivo, nude mice", "key": {"UCI-101 tumor xenografts": {"tested_on": "UCI-101 tumor xenografts", "assay": "Tumor xenograft size after multiple dosing (days 8, 10, 12)", "conditions": "ip on days 8, 10 and 12; stilbene 5c 50 mg/kg, tirapazamine 60 mg/kg; day 14; 6 mice per group", "method": "The long and short axes of tumor were measured to calculate tumor size and plotted against days. Each treatment group contains 6 mice.\nMice were then sacrificed at day 14. The long and short axes of tumors were measured to calculate tumor size and plotted against days. Each treatment group contains 6 mice.\nTumor cell lines used in this study include UCI-101 ovarian cancer cells and Hep3B hepatocellular carcinoma cells. Cells are grown in IMEM and DMEM, respectively, supplemented with 10% fetal bovine serum, glutamine, and penicillium/streptomycin in 5% CO2 humidified environment. When cells were grown to 80% confluent, cells were harvested with 1% trypsin and washed with phosphate-buffered saline three times before injected subcutaneously into nude mice. For mouse xenograft studies, 2×10^6 tumor cells were injected in the back subcutaneously. Nude mice were purchased from NCI Development Therapeutic Program as described. Tumor size was monitored by long and short axes (a and b, respectively) by a caliber and tumor volume was calculated by the formula ab^2/2. […] Treatment with AAA bevacizumab was done by tail vein injection at a dose of 10 mg/kg.\nNext we measured the size of tumor xenografts after multiple dosing. Nude mice were injected subcutaneously with UCI-101 cells and tumor became visible after day 7. […] Tumor xenografts were measured and sizes are plotted in FIG. 7."}, "UCI-101 tumor xenograft": {"tested_on": "UCI-101 tumor xenograft", "assay": "Tumor growth, stilbene 5c with or without bevacizumab", "protocol": "FIG. 4. Efficacy of stilbene 5c in vivo and enhanced effect by bevacizumab. Nude mice were injected with UCI-101 cells subcutaneously and mice are treated with stilbene 5c at 20 mg/kg/day Monday-Friday with or without bevacizumab 10 mg/kg twice a week. Tumor volume was calculated by the long and short axes. Each group contains 8 mice and the average tumor volumes and standard deviations were plotted against days.\nTumor cell lines used in this study include UCI-101 ovarian cancer cells and Hep3B hepatocellular carcinoma cells. Cells are grown in IMEM and DMEM, respectively, supplemented with 10% fetal bovine serum, glutamine, and penicillium/streptomycin in 5% CO2 humidified environment. When cells were grown to 80% confluent, cells were harvested with 1% trypsin and washed with phosphate-buffered saline three times before injected subcutaneously into nude mice. For mouse xenograft studies, 2×10^6 tumor cells were injected in the back subcutaneously. Nude mice were purchased from NCI Development Therapeutic Program as described. Tumor size was monitored by long and short axes (a and b, respectively) by a caliber and tumor volume was calculated by the formula ab^2/2. […]. Treatment with AAA bevacizumab was done by tail vein injection at a dose of 10 mg/kg.\nNext we used ovarian cancer UCI101 cells to study the in vivo efficacy of stilbene 5c We first administered stilbene 5c with intraperitoneal injection at 25 mg/kg three times a week. Tumor volume was calculated by measuring the long and short axes. […] The failure could be due to the possibility that intermittent dosing leaves a viable rim of tumor, which survives the treatment of VDAs by getting nutritional and blood support from surrounding normal vasculature. When treatment with VDAs is stopped, the viable rim of tumor grows quickly. Tumor vasculature recovers quickly by recruitment of the mobilized endothelial progenitor cells. Based on this rationale, we combined stilbene 5c with bevacizumab, which was used to neutralize VEGF secreted by UCI-101 tumor cells. […]"}, "[1]": {"tested_on": "UCI-101 ovarian cancer tumor xenografts", "assay": "Real-time measurement of tumor oxygen and blood flow (OxyLite/OxyFlo)", "conditions": "50 mg/kg intraperitoneal", "protocol": "FIG. 3. Tumor blood flow and oxygen content in tumor. Oxygen and blood flow were monitored by OxyFlo and OxyLite system (Optronix, Oxford, UK). Mice were anesthetized with isoflurane and a triple sensor that records temperature, oxygen and blood flow was inserted into tumor and left for 1 hour for recording. Shown are the results of three mice with similar size subcutaneous tumors derived from UCI-101 ovarian cancer cells. Top panels are oxygen level and lower panels are tumor blood flow. Timing of St5c injection was marked.\nNude mice were injected subcutaneously with UCI-101 ovarian cancer cells to form tumor xenografts. Tumor xenografts were subjected to oxygen and blood flow study when tumor size reached 8-10 mm in largest diameter. Tumor was punctured with 25 G needle to make a tunnel for insertion of sensor probe. The tip of the sensor probe was left in the center of the tumor. Tumor oxygen level and blood flow were determined by OxyLite 2000 dual channel monitoring system with “bare-fibre” type sensor probe, which is designed for measuring tissue oxygen, temperature and blood flow using laser Doppler technique (Optonix, oxford, UK). The measurement was done in a real time basis (100 measurements per second) and the oxygen level and tumor blood flow were recording continuously. Because the initial trauma induced by needle and insertion of sensor probe can interfere with blood flow and oxygenation, each mouse was recorded first without treatment for at least 20 min before the mice was injected intraperitoneally with the tested VDA cis-3, 4′,5-trimethoxy-3′-aminostilbene (stilbene 5c) at 50 mg/kg. The tumor blood flow and oxygen level was then recorded for another 20 min after treatment.\nIn this study, we performed proof of concept study with VDA stilbene 5c to confirm that stilbene 5c induce tumor hypoxia. […]\nThere are several issues that need to be considered in order to interpret the results. […] All mice were thus recorded for at least 20 min to record the pre-treatment baseline. […]"}}, "data": [{"smiles": "COc1cc(/C=C\\c2ccc(OC)c(N)c2)cc(OC)c1", "note": "[stilbene 5c, cis-3, 4′, 5-trimethoxy-3′-aminostilbene]", "values": [{"measurement": "size of tumor compared with the control", "setting": "UCI-101 tumor xenografts", "value": "about 50%"}, {"measurement": "difference in tumor growth between control and treated mice", "setting": "UCI-101 tumor xenograft; intraperitoneal 25 mg/kg three times a week", "value": "did not detect any difference"}, {"measurement": "tumor growth suppression", "setting": "UCI-101 tumor xenograft; stilbene 5c 20 mg/kg/day Monday to Friday for two weeks, bevacizumab 10 mg/kg twice a week for 5 doses", "value": "about 45%"}, {"measurement": "tumor oxygen level after treatment", "setting": "[1]; all three mice, within 20-30 min recording, baseline 15-60 mm Hg", "value": "less than 10 mm Hg"}, {"measurement": "tumor blood flow after treatment, of the level before stilbene treatment", "setting": "[1]; mice #1 and 3", "value": "less than 25%"}, {"measurement": "tumor blood flow change", "setting": "[1]; mouse #2 (low baseline flow 200-300)", "value": "significant in the beginning but subsequently recovered in some degree though still lower than baseline"}]}]}
